# Measurements: publication PMC8967248, “Impact of Porphyrin Binding to GENOMES UNCOUPLED 4 on Tetrapyrrole Biosynthesis in planta” (Frontiers in Plant Science, 2022)
# Where a chain is given by its changes, count along the chain named.
# Assays:
# GUN4 (AtGUN4) [1] = molecular target: T1, GUN4 (AtGUN4) (Arabidopsis thaliana, UniProt Q9LX31, F191A); test: tryptophan fluorescence quenching; format: binding; settings: read-out: apparent Kd
# T1 construct: 6xHis-tagged, pQE80_AtGUN4(WT), expressed in and purified from E. coli
# T1 sequence (Q9LX31 70-265 F191A): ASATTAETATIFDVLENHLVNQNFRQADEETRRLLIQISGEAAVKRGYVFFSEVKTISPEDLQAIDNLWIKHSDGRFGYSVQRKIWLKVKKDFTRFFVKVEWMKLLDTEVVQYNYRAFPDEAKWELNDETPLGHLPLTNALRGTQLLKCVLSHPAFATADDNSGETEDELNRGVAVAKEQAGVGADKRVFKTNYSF
# GUN4 (AtGUN4) [2] = molecular target: T2, GUN4 (AtGUN4) (Arabidopsis thaliana, UniProt Q9LX31); test: tryptophan fluorescence quenching; format: binding; settings: read-out: apparent Kd
# T2 construct: 6xHis-tagged, pQE80_AtGUN4(WT), expressed in and purified from E. coli
# T2 sequence (Q9LX31 70-265): T1 sequence (Q9LX31 70-265 F191A) with A122F
compound,measurement,setting,value
C=CC1=C(C)c2cc3[nH]c(cc4nc(cc5[nH]c(cc1n2)c(C)c5CCC(=O)O)C(CCC(=O)O)=C4C)c(C)c3C=C [PIX],Kd,GUN4 (AtGUN4) [1],2.1 ± 0.28 µM
same,Kd,GUN4 (AtGUN4) [2],1.05 ± 0.12 µM
